Source: PMC10794144, “A novel antibiotic class targeting the lipopolysaccharide transporter” (Nature, 2024)
Where two headings read alike, the source gives them in different places.

What was measured:
CYP2D6 = CYP2D6 (Homo sapiens, UniProt P10635); assay: CYP inhibition; assay type: in vitro ADME
Xanthine oxidase = biological target: T1, Xanthine oxidase (Bos taurus, UniProt P80457); assay: Off-target screening (CEREP); assay type: biochemical, bovine; conditions: read-out: percent inhibition
T1 construct: purchased Eurofins CEREP SA
T1 sequence (P80457 whole entry): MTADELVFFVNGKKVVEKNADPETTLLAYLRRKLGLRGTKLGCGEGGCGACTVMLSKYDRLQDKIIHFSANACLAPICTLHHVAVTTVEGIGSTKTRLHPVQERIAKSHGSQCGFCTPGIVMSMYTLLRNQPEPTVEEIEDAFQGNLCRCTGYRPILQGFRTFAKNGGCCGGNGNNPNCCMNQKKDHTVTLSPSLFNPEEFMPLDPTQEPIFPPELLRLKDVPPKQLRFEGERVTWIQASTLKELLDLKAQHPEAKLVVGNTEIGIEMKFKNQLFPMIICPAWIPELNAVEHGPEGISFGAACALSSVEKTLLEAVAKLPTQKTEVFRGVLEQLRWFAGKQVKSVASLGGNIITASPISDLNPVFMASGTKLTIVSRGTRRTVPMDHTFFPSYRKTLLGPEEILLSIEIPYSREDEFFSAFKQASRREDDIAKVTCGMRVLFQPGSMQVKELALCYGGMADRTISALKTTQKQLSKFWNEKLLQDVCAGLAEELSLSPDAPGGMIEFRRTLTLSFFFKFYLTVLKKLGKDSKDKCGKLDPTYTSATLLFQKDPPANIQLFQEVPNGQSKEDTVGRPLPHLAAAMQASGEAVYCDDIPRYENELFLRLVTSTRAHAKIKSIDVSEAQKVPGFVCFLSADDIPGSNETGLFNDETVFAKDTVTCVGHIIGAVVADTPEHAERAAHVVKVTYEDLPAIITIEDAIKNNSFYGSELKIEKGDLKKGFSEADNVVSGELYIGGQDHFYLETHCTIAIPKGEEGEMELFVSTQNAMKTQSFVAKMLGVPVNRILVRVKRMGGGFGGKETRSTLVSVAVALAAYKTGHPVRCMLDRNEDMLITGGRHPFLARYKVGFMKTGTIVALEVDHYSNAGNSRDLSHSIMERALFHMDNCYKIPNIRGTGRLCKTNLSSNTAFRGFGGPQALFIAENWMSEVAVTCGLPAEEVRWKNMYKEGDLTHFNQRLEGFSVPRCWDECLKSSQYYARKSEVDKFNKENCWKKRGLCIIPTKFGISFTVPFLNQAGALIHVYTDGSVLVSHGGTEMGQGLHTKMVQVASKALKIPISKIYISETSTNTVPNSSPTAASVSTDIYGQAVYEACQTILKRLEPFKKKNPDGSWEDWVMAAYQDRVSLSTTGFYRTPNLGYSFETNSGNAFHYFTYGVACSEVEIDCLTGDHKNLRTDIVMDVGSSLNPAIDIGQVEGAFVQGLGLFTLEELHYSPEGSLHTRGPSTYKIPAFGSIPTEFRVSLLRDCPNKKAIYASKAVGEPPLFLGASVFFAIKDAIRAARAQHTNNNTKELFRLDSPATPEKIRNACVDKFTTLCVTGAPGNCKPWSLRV
Description: Supplementary Table 1 │ Off-target activity screening f or MCP compou nds […]
The assays given in the table above were conducted at Eurofins CEREP S A (Celle-Lévescault, France) and were run as single point measurements in duplicates in the presence of 10 µ M of the test compound and reported as percent inhibition of the radioligand signal or control enzymatic activity. n.d., not

A. baumannii [1] = assay: Bacterial phenotypic fingerprint profiling; assay type: cell-based, Acinetobacter baumannii; conditions: random forest model
Description: Sample preparation and analysis was conducted as previously described[26] for A. baumannii, with the generated and analysed dataset consisting of three independent experiments, n = 3, as the only modification to the protocol.
For the random forest analysis data proximity analysis from 4x and 8x LOED are pooled and the number of datapoints are reduced by down sampling to be equal for all reference conditions the maximal projection of the analysis. b, In the right panel an out-of-bag validation of the random forest classification model is indicated for the reference compounds. […] The degree of frequency of matching prediction correspond to the length of the individual bar segment, where a longer segment represents a higher similarity. […] Source Data

[2] = Five-day repeat dose tolerability study; assay type: in vivo, rat; conditions: for Clinical observations: male Wistar rats, n = 4; for Clinical chemistry / Coagulation / Haematology: 5 days; for MTD: slow IV once daily for 5 days
Description: Assessment of tolerability was based on mortality, in-life observations, body weight, food consumption and clinical pathology during the in-life phase. Moreover, gross pathology and histopathology were performed at unscheduled or scheduled euthanasia on day 6.

A. baumannii [3] = assay: Immunocompetent mouse septicaemia infection model; assay type: in vivo; conditions: for Survivors, individual mouse status: ACC00445 septicaemia
Description: Septicaemia was induced in CD-1 immunocompetent male mice by an intraperitoneal inoculation of a bacterial suspension of the tested A. baumannii isolate at a challenge of approximately 1–2 log[CFU] above the determined median lethal dose (resulting in 10^5 to 10^7 CFU per mouse). […] Mouse survival was followed over 6–7 days. GraphPad Prism 8 was used for graphical presentation of the data. Septicaemia studies with mutant derivative isolates obtained in resistance studies were performed as described above, using a bacterial challenge as determined for the parental isolate.

A. baumannii [4] = assay: Neutropaenic mouse thigh infection model; assay type: in vivo; conditions: for Bacterial Load (average): A. baumannii ACC01085, neutropenic mice, summary table, same as average Log CFU/Thigh
Description: An intramuscular inoculation of a bacterial suspension of approximately 10^6 CFU per thigh was used to induce the infection. Treatment started 2 h after infection. […] In the pneumonia model, an intratracheal inoculation of approximately 10^7 CFU per lung was used to induce the infection. Treatment started 2 h after infection. […] Standard of care antibiotic was tested at a single dose in both infection models. GraphPad Prism 8 was used for graphical presentation and to analyse data.

[5] = 0.6 mg/kg slow IV once daily for 5 days
[6] = 6 mg/kg slow IV once daily for 5 days
[7] = murine septicaemia, MDR A. baumannii APV00535 (ACC00535), MCP 0.1 mg/kg, mark per mouse (10 mice), study VDD3948

Sequence of CYP2D6 (P10635 whole entry): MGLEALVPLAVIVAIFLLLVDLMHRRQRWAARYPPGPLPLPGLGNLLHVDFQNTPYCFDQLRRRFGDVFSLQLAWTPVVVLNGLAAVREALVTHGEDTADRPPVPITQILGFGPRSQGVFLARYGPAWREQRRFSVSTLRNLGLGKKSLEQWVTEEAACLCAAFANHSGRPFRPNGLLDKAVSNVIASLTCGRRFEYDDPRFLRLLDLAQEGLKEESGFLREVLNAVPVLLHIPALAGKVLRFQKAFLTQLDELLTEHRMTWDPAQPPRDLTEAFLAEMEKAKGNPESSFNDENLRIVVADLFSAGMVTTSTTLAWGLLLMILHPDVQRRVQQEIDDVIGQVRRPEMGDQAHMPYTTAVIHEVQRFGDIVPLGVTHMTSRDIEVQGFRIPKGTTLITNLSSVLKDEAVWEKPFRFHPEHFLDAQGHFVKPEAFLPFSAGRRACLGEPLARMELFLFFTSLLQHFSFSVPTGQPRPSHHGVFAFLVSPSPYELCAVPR

CN1C(=O)[C@H](CCCN)NC(=O)[C@H](CCCN)NCc2ccccc2Sc2ccccc2CNC(=O)[C@@H]1Cc1c[nH]c2ccccc12 [RO7036668]
CYP inh. (2D6) (CYP2D6): > 50 µM | inhibition at 10 µM (Xanthine oxidase; 10 µM, duplicates): -16%

CN1C(=O)[C@H](CCCCN)NC(=O)[C@H](CCCN)NCc2cccnc2Sc2cccc(-c3ccc(C(=O)O)cc3)c2CNC(=O)[C@@H]1Cc1c[nH]c2ccccc12 [zosurabalpin]
Similarity towards RO7202110 (A. baumannii [1]): > 70% | CYP inh. (2D6) (CYP2D6): >50 (3A4) >50 (2C9) >50 (2D6) μM | Clinical observations [2, 5]: Transiently discolored tail after dosing | Clinical observations [2, 6]: Transiently discolored tail after dosing, body weight loss | Clinical chemistry ([2]; rats, 0.6 mg/kg IV): No relevant changes | Coagulation ([2]; rats, 0.6 mg/kg IV): No change | Haematology ([2]; rats, 0.6 mg/kg IV): No change | Clinical chemistry ([2]; rats, 6 mg/kg IV): Minimally increased BUN, creatine. Minimally decreased phosphorus | Coagulation ([2]; rats, 6 mg/kg IV): No change | Haematology ([2]; rats, 6 mg/kg IV): No change | MTD ([2]; rats): 6 mg/kg | Survival rate from sepsis, treated (A. baumannii [3]; ACC00445 parental, 2 x 30mg/kg s.c., vehicle 0): 0/100% | Survivors, individual mouse status (A. baumannii [3]; 0.3 mg/kg s.c. at 1 and 5 h, Day 1): 1 | Survival rate from sepsis, treated (A. baumannii [3]; ACC00535 parental, 2 x 30mg/kg, vehicle 0): 0/100% | Survival rate from sepsis, treated (A. baumannii [3]; ROB08706 parental, 2 x 30mg/kg, vehicle 0): 0/100% | Survival rate from sepsis, treated (A. baumannii [3]; ROB08708 parental, 2 x 30mg/kg, vehicle 0): 0/100% | Survival rate from sepsis, treated (A. baumannii [3]; ROB08961 (LpxM NS), 2 x 30mg/kg, vehicle 100): 100/100% | Survival rate from sepsis, treated (A. baumannii [3]; ROB08979 (LptF R322L), 2 x 30mg/kg, vehicle 25): 25/50% | Survival rate from sepsis, treated (A. baumannii [3]; ROB08982 (lpxM ISAba1), 2 x 30mg/kg, vehicle 87.5): 87.5/100% | Survival rate from sepsis, treated (A. baumannii [3]; ROB08985 (LpxM NS), 2 x 30mg/kg, vehicle 100): 100/100% | Survival rate from sepsis, treated (A. baumannii [3]; ROB08997 (LptF I323K), 2 x 30mg/kg, vehicle 0): 0/0% | Survival rate from sepsis, treated (A. baumannii [3]; ROB08998 (AdeR A91V), 2 x 30mg/kg, vehicle 12.5): 12.5/100% | Survival rate from sepsis, treated (A. baumannii [3]; ROB09000 (lpxM ISAba1), 2 x 30mg/kg, vehicle 100): 100/100% | Survival rate from sepsis, treated (A. baumannii [3]; ROB21530 (LptF W271S), 2 x 30mg/kg, vehicle 25): 25/37.5% | Survival rate from sepsis, treated (A. baumannii [3]; ROB21531 (LptG G40D), 2 x 30mg/kg, vehicle 0): 0/87.5% | Survival rate from sepsis, treated (A. baumannii [3]; ROB21532 (LptF R322C), 2 x 30mg/kg, vehicle 50): 50/50% | Survival rate from sepsis, treated (A. baumannii [3]; ROB21533 (LptF I317L), 2 x 30mg/kg, vehicle 0): 0/0% | Survival rate from sepsis, treated (A. baumannii [3]; ROB23370 (adeS ISAba1), 2 x 30mg/kg, vehicle 0): 0/75% | Survival rate from sepsis, treated (A. baumannii [3]; ROB23371 (AdeS R152K), 2 x 30mg/kg, vehicle 0): 0/100% | Survival rate from sepsis, treated (A. baumannii [3]; ROB23373 (AdeS G318S), 2 x 30mg/kg, vehicle 0): 0/100% | Survival rate from sepsis, treated (A. baumannii [3]; ROB23377 (AdeS R108S), 2 x 30mg/kg, vehicle 0): 0/100% | Survival rate from sepsis, treated (A. baumannii [3]; ROB23380 (adeS ISAba1), 2 x 30mg/kg, vehicle 0): 0/100% | Bacterial Load (average) (A. baumannii [4]; 6 mg/kg/day q6h, 24 h): 8.75 | Bacterial Load (average) (A. baumannii [4]; 20 mg/kg/day q6h, 24 h): 7.85 | Bacterial Load (average) (A. baumannii [4]; 60 mg/kg/day q6h, 24 h): 7.41 | Bacterial Load (average) (A. baumannii [4]; 100 mg/kg/day q6h, 24 h): 6.21 | Bacterial Load (average) (A. baumannii [4]; 160 mg/kg/day q6h, 24 h): 4.10 | Bacterial Load (average) (A. baumannii [4]; 240 mg/kg/day q6h, 24 h): 3.37 | Bacterial Load (average) (A. baumannii [4]; 360 mg/kg/day q6h, 24 h): 3.09 | inhibition at 10 µM (Xanthine oxidase): 5%

CN1C(=O)[C@H](CCCCN)NC(=O)[C@H](CCCN)NCc2cccnc2Sc2c(Cl)ccc(Cl)c2CNC(=O)[C@@H]1Cc1c[nH]c2ccccc12 [RO7075573]
Similarity towards RO7202110 (A. baumannii [1]): > 70% | CYP inh. (2D6) (CYP2D6): > 50 µM | Clinical observations [2, 5]: Slightly discolored tail after dosing | Clinical observations [2, 6]: Slightly discolored tail after dosing, red extremities on D2 after dosing, prone posture, rolling gait, hypoactivity, laboured respiration, reduced food consumption – euthanized for humane reasons D2 | Clinical chemistry ([2]; rats, 0.6 mg/kg IV): No relevant changes | Coagulation ([2]; rats, 0.6 mg/kg IV): No change | Haematology ([2]; rats, 0.6 mg/kg IV): No change | Clinical chemistry ([2]; rats, 6 mg/kg IV): Decreased HDL, triglyceride, cholesterol. Increased GLDH, AST and ALAT, CK, BUN, creatine, phosphorus, haptoglobin | Coagulation ([2]; rats, 6 mg/kg IV): Decreased prothrombin time and increased aPTT | Haematology ([2]; rats, 6 mg/kg IV): Decrease in haemoglobin and haematocrit, increase in neutrophils | Decrease in lipid parameters (cholesterol, triglycerides, HDL) ([2]; rats, after intravenous administration): > 40% | MTD ([2]; rats): 0.6 mg/kg | Protection in lethal sepsis model (A. baumannii [3]; ACC00535, immunocompetent mice, s.c. doses between 0.1 and 0.3 mg per kg at 1 h and 5 h): complete protection | Survivors, 2016-02-03 (A. baumannii [3]; murine septicaemia, MDR A. baumannii APV00535 (ACC00535), MCP 0.01 mg/kg, mark per mouse (10 mice), study VDD3948): 1 | Survivors, 2016-02-03 (A. baumannii [3]; murine septicaemia, MDR A. baumannii APV00535 (ACC00535), MCP 0.03 mg/kg, mark per mouse (10 mice), study VDD3948): 1 | Survivors, 2016-02-03 (A. baumannii [3]; [7]): 1 | Survivors, 2016-02-04 (A. baumannii [3]; [7]): 1 | Decrease in thigh bacterial burden (A. baumannii [4]; ACC00535, neutropaenic mice, s.c. every 4 h for 24 h): > 4 log CFU | inhibition at 10 µM (Xanthine oxidase): 6%

C[C@@H](O)[C@H]1C(=O)N2C(C(=O)O)=C(S[C@@H]3CN[C@H](C(=O)N(C)C)C3)[C@H](C)[C@H]12 [meropenem, reference compound]
Survivors, individual mouse status (A. baumannii [3]; 80 mg/kg, Day 1): 1 | Survivors, individual mouse status (A. baumannii [3]; 80 mg/kg, Day 2): 1 | Survivors, 2016-02-03 (A. baumannii [3]; murine septicaemia, MDR A. baumannii APV00535 (ACC00535), Meropenem 80 mg/kg, mark per mouse (10 mice), study VDD3948): 1 | delta 24 hr (A. baumannii [4]; A. baumannii ACC00535 (APV00535), neutropenic mice, MERO 100 mg/kg, 24 h, change of average log CFU/thigh vs vehicle at 24 h): 0.67 | Thigh bacterial burden outcome (A. baumannii [4]; ACC00535, neutropaenic mice): bacterial outgrowth

CN1C(=O)[C@H](CCCCN)NC(=O)[C@H](CCCN)NCc2cccnc2Sc2c(Cl)ccc(-c3ccc(C(=O)O)cc3)c2CNC(=O)[C@@H]1Cc1c[nH]c2ccccc12 [RO7202110]
CYP inh. (2D6) (CYP2D6): >50 (3A4) >50 (2C9) >50 (2D6) μM | inhibition at 10 µM (Xanthine oxidase; 10 µM, duplicates): 0%
